{"source": "paper PMC5679667", "about": "(PLoS ONE, 2017)", "target": "T1, ecAT3.10 (extracellular ATeam3.10) (Bacillus sp. PS3, UniProt P07678)", "T1 construct": "gene atpC; ATeam3.10 (epsilon subunit between CFP and YFP) with N-terminal IgK leader and C-terminal PDGFR transmembrane anchor; on surface of Neuro2A cells", "T1 sequence (P07678 whole entry, the tested form may be a part)": "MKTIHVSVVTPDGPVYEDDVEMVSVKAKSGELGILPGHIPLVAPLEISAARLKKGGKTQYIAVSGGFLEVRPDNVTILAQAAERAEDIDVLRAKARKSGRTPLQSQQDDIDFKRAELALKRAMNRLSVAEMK", "test": "live-cell FRET/CFP ratio imaging", "type": "cell-based", "conditions": "Neuro2A cells, continuous perfusion, pH 7.3, room temperature; printed error probably a misprint"}
{"smiles": "Nc1ncnc2c1ncn2[C@@H]1O[C@H](COP(=O)(O)OP(=O)(O)O)[C@@H](O)[C@H]1O", "note": "[ADP]", "values": [{"measurement": "fold increase in ratio signal at 100 μM", "value": "1.026 ± 1.005"}]}
